# Assay results published in US6362369B1, “Phthalic acid diamide derivatives fluorine-containing aniline compounds as starting material, agricultural and horticultural insecticides, and a method for application of the insecticides” (Nihon Nohyaku Co., Ltd., priority 1997, dated 2002).
# Key:
# Type in all cases: in vivo
# [1] = tested on: rice leafroller (Cnaphalocrocis medinalis); experiment: Insecticidal effect on rice leafroller (Test Example 3); conditions: 500 ppm, 25° C., humidity 70%; for Insecticidal effect (Test Example 3), judged from mortality / Insecticidal effect on rice leafroller (Test Example 3), judged grade: rice lamina dip; for Insecticidal effect (Test Example 3), judged from mortality: 4 days after inoculation; for Insecticidal effect, Test Example 3: rice lamina immersed; for Insecticidal effect, Test Example 3 / Insecticidal effect on rice leafroller (Test Example 3), judged grade: four days after inoculation; for Insecticidal effect on rice leafroller (Test Example 3), judged grade: third-instar larvae
# Outline: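 Insecticidal effect is judged by a predefined criterion from dead/alive counts four days after infesting air-dried lamina with third-instar larvae, kept on moistened filter paper at 25° C, 70% humidity.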
# [2] = tested on: diamondback moth (Plutella xylostella); experiment: Insecticidal effect on diamondback moth (Test Example 1); conditions: for Insecticidal effect (Test Example 1), judged from mortality / Insecticidal effect, Test Example 1: diamondback moth; for Insecticidal effect (Test Example 1), judged from mortality: judged by the criterion of Test Example 1; for Insecticidal effect on diamondback moth (Test Example 1), judged grade: mortality judged according to the criterion shown in Test Example 1
# Outline: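 Triplicate groups of 10 insects were scored: six days after immersion of oviposited Chinese cabbage seedlings and holding at 25 °C post air-drying, hatched larvae were counted. Mortality derived from these counts and insecticidal effect judged by a set criterion.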
# [3] = tested on: common cutworm (Spodoptera Litura); experiment: Insecticidal effect on common cutworm (Test Example 2); conditions: 500 ppm, 25° C.; for Insecticidal effect (Test Example 2), judged from mortality / Insecticidal effect on common cutworm (Test Example 2), judged grade: cabbage leaf dip; for Insecticidal effect (Test Example 2), judged from mortality: 8 days after inoculation; for Insecticidal effect, Test Example 2: cabbage leaf immersed; for Insecticidal effect, Test Example 2 / Insecticidal effect on common cutworm (Test Example 2), judged grade: eight days after inoculation; for Insecticidal effect on common cutworm (Test Example 2), judged grade: second-instar larvae
# Outline: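 Mortality is the read-out: larvae are counted as dead or alive on day 8 and the percentage is graded by an effect criterion. Second-instar larvae are kept with the air-dried treated material in a sealed dish at 25° C, in triplicate groups of ten.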
# [4] = third-instar larvae of rice leafroller
# [5] = second-instar larvae of common cutworm
# [6] = judged by the mortality criterion of Test Example 1
# [7] = rice leafroller third-instar larvae
# [8] = mortality judged by criterion of Test Example 1
# [9] = common cutworm second-instar larvae
structure (smiles),measurement,setting,value
CCN(CC)C(=O)c1c(F)cccc1C(=O)Nc1ccc(C(F)(C(F)(F)F)C(F)(F)F)cc1C [compound 1526],"Insecticidal effect (Test Example 3), judged from mortality",[1]; [4],A (100)
same,"Insecticidal effect (Test Example 1), judged from mortality",[2],A (100)
same,"Insecticidal effect (Test Example 2), judged from mortality",[3]; [5],A (100)
CCCN(CC)C(=O)c1c(F)cccc1C(=O)Nc1ccc(C(F)(F)C(F)(F)F)cc1C [compound 1581],"Insecticidal effect (Test Example 3), judged from mortality",[1]; [4],A (100)
same,"Insecticidal effect (Test Example 1), judged from mortality",[2],A (100)
same,"Insecticidal effect (Test Example 2), judged from mortality",[3]; [5],A (100)
CC(C)NC(=O)c1cc(Cl)ccc1C(=O)Nc1ccc(Cl)cc1Cl [compound 173],"Insecticidal effect, Test Example 3",[1]; [4],D (79-50)
same,"Insecticidal effect, Test Example 1",[2]; [6],A (100)
same,"Insecticidal effect, Test Example 2",[3]; [5],D (79-50)
CCN(CC)C(=O)c1c(C(=O)Nc2ccc(C(F)(C(F)(F)F)C(F)(F)F)cc2C)cccc1[N+](=O)[O-] [compound 1119],"Insecticidal effect, Test Example 3",[1]; [7],A (100)
same,"Insecticidal effect, Test Example 1",[2]; [8],A (100)
same,"Insecticidal effect, Test Example 2",[3]; [9],A (100)
Cc1cc(OC(F)F)ccc1NC(=O)c1c(Cl)cccc1C(=O)NC(C)C [compound 236],"Insecticidal effect, Test Example 3",[1]; [4],A (100)
same,"Insecticidal effect, Test Example 1",[2]; [6],A (100)
same,"Insecticidal effect, Test Example 2",[3]; [5],A (100)
Cc1cc(C(F)(F)C(F)(F)F)ccc1NC(=O)c1ccccc1C(=O)NC(C)CO (stereo not drawn) [compound 1294],"Insecticidal effect, Test Example 3",[1]; [7],A (100)
same,"Insecticidal effect, Test Example 1",[2]; [8],A (100)
same,"Insecticidal effect, Test Example 2",[3]; [9],A (100)
Cc1cc(C(F)(F)C(F)(F)F)ccc1NC(=O)c1cccc(Cl)c1C(=O)NC(C)(C)C#Cc1ccc(OC(F)(F)F)cc1 [compound 1633],"Insecticidal effect (Test Example 3), judged from mortality",[1]; [4],A (100)
same,"Insecticidal effect (Test Example 1), judged from mortality",[2],A (100)
same,"Insecticidal effect (Test Example 2), judged from mortality",[3]; [5],A (100)
CC(C)NC(=O)c1c(F)cccc1C(=O)Nc1ccc(OC(F)F)cc1C(F)(F)F [compound 527],"Insecticidal effect on rice leafroller (Test Example 3), judged grade",[1],A (100)
same,"Insecticidal effect on diamondback moth (Test Example 1), judged grade",[2],A (100)
same,"Insecticidal effect on common cutworm (Test Example 2), judged grade",[3],A (100)
Cc1cc(I)ccc1NC(=O)c1cccc(I)c1C(=O)NC(C)C [compound 367],"Insecticidal effect, Test Example 3",[1]; [4],A (100)
same,"Insecticidal effect, Test Example 1",[2]; [6],A (100)
same,"Insecticidal effect, Test Example 2",[3]; [5],A (100)
CC(C)NC(=O)c1c(I)cccc1C(=O)Nc1ccc2c(c1)OC(F)(F)O2 [compound 1102],"Insecticidal effect, Test Example 3",[1]; [7],A (100)
same,"Insecticidal effect, Test Example 1",[2]; [8],A (100)
same,"Insecticidal effect, Test Example 2",[3]; [9],A (100)
CC(C)NC(=O)c1c(Br)cccc1C(=O)Nc1ccc(C(F)(F)F)cc1Cl [compound 276],"Insecticidal effect, Test Example 3",[1]; [4],A (100)
same,"Insecticidal effect, Test Example 1",[2]; [6],A (100)
same,"Insecticidal effect, Test Example 2",[3]; [5],A (100)
Cc1cc(OC(F)F)ccc1NC(=O)c1c(F)ccc(F)c1C(=O)NC(C)C [compound 581],"Insecticidal effect on rice leafroller (Test Example 3), judged grade",[1],A (100)
same,"Insecticidal effect on diamondback moth (Test Example 1), judged grade",[2],A (100)
same,"Insecticidal effect on common cutworm (Test Example 2), judged grade",[3],B (99-90)
Cc1cc(C(F)(F)C(F)(F)F)ccc1NC(=O)c1cccc(Cl)c1C(=O)NCc1ccc(OC(F)(F)F)cc1 [compound 1576],"Insecticidal effect (Test Example 3), judged from mortality",[1]; [4],A (100)
same,"Insecticidal effect (Test Example 1), judged from mortality",[2],A (100)
same,"Insecticidal effect (Test Example 2), judged from mortality",[3]; [5],D (79-50)
Cc1c(NC(=O)c2c(I)cccc2C(=O)NC(C)C)cccc1C(F)(F)F [compound 435],"Insecticidal effect, Test Example 3",[1]; [4],A (100)
same,"Insecticidal effect, Test Example 1",[2]; [6],A (100)
same,"Insecticidal effect, Test Example 2",[3]; [5],B (99-90)
CC(C)NC(=O)c1c(I)cccc1C(=O)Nc1ccc(C(F)(F)C(F)(F)C(F)(F)F)cc1 [compound 350],"Insecticidal effect, Test Example 3",[1]; [4],A (100)
same,"Insecticidal effect, Test Example 1",[2]; [6],A (100)
same,"Insecticidal effect, Test Example 2",[3]; [5],A (100)
Cc1cc(OC(F)(F)C(F)(Br)C(F)(F)F)ccc1NC(=O)c1cccc([N+](=O)[O-])c1C(=O)NC(C)C (stereo not drawn) [compound 700],"Insecticidal effect on rice leafroller (Test Example 3), judged grade",[1],A (100)
same,"Insecticidal effect on diamondback moth (Test Example 1), judged grade",[2],A (100)
same,"Insecticidal effect on common cutworm (Test Example 2), judged grade",[3],A (100)
Cc1cc(C(F)(F)C(F)(F)C(F)(F)C(F)(F)F)ccc1NC(=O)c1c(Cl)cccc1C(=O)NC(C)C [compound 225],"Insecticidal effect, Test Example 3",[1]; [4],A (100)
same,"Insecticidal effect, Test Example 1",[2]; [6],A (100)
same,"Insecticidal effect, Test Example 2",[3]; [5],B (99-90)
Cc1cc(OC(F)(F)C(F)F)ccc1NC(=O)c1cccc([N+](=O)[O-])c1C(=O)NC(C)C [compound 712],"Insecticidal effect on rice leafroller (Test Example 3), judged grade",[1],A (100)
same,"Insecticidal effect on diamondback moth (Test Example 1), judged grade",[2],A (100)
same,"Insecticidal effect on common cutworm (Test Example 2), judged grade",[3],A (100)
